Measurements published in paper PMC7794297.
Where two headings read alike, the source gives them in different places.

Tests used:
glucose oxidase (GOx) [1] = target: T1, glucose oxidase (GOx) (Aspergillus niger, UniProt P13006); experiment: GOx-DCL in presence of DTNB; design: purchased Sigma Aldrich; conditions: large excess of DTNB
Experimental: The equilibration of the DCL was completed after 24 h (Fig. 9) and the oligomers were identified by HPLC-MS (Supplementary Figs. 4–20). The precise composition of the DCL (with and without GOx), was assessed by measuring the relative peak area (RPA). The normalized change of RPA was used to quantify the protein influence in the final DCL showing the amplification of the dimer of compound 4, that is (4)2 (Fig. 9b). Control experiments were set up to verify that the amplification of the dimer was not due to unspecific binding. Firstly the GOx was replaced by the bovine serum albumin (BSA). A stability study of BSA under the DCL conditions was performed using a fluorescence technique confirming the BSA stability in the DCL experiment (Supplementary Fig. 48)[50].
% v/v DMSO (266 µL). The DCL was stabilized for 24 hours at 6 °C. Then, BS A was removed by ultracentrifugation thr ough an Amicon ultra -filter (10 KDa) and the solution was analyzed by […]
GOx-DCL in presence of DTNB.
GOx- directed DCL: Dithiols 1-2 […]
To elucídate the type of inhibitor, Lineweaver-Burk plot were performed. GOx activity was measured at increasing concentration s of glucose (0.2 mM to 4 mM) and in presence and absence of (4)2 and DTNB. According to fluorescence s tudies and their Kd’ values, the concentration of the inhibitors were chosen. […]
IC50 was determined using different concentrations of inhibitors DTNB and (4)2. […]

glucose oxidase (GOx) [2] = target: T1, glucose oxidase (GOx); experiment: GOx activity assay, glucose oxidase-horseradish peroxidase coupled system with o-dianisidine; format: biochemical; design: purchased Sigma Aldrich; conditions: for 1/Vo: Lineweaver-Burk;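 on GOx activity: GOx activity followed by o-dianisidine absorbance at 500 nm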
glucose oxidase (GOx) [3] = target: T1, glucose oxidase (GOx); experiment: Tryptophan fluorescence emission binding experiments with GOx; design: purchased Sigma Aldrich; conditions: for Kd: GOx 0.8 µM, Tris pH 7.8, 5% DMSO, 10 °C
apo and holo GOx = target: apo and holo GOx; design: method as in PMID 10491329; conditions: apo and holo GOx forms; cited from earlier work
[4] = [DTNB] 8 uM, Supplementary Figure 52 c
[5] = [DTNB] 40 uM, Supplementary Figure 52 c
[6] = [DTNB] 80 uM, Supplementary Figure 52 c
[7] = [DTNB] 200 uM, Supplementary Figure 52 c
[8] = [DTNB] 400 uM, Supplementary Figure 52 c
[9] = [Glucose] 1.6 μM, Supplementary Figure 52 a
[10] = [Glucose] 32 μM, Supplementary Figure 52 a
[11] = [Glucose] 48 μM, Supplementary Figure 52 a
[12] = [Glucose] 400 μM, Supplementary Figure 52 a
[13] = [Glucose] 800 μM, Supplementary Figure 52 a
[14] = [Glucose] 2000 μM, Supplementary Figure 52 a
[15] = [Glucose] 4000 μM, Supplementary Figure 52 a
[16] = [Glucose] 8000 μM, Supplementary Figure 52 a
[17] = [Glucose] 12000 μM, Supplementary Figure 52 a
[18] = [Glucose] 20000 μM, Supplementary Figure 52 a

T1 sequence (P13006 17-605): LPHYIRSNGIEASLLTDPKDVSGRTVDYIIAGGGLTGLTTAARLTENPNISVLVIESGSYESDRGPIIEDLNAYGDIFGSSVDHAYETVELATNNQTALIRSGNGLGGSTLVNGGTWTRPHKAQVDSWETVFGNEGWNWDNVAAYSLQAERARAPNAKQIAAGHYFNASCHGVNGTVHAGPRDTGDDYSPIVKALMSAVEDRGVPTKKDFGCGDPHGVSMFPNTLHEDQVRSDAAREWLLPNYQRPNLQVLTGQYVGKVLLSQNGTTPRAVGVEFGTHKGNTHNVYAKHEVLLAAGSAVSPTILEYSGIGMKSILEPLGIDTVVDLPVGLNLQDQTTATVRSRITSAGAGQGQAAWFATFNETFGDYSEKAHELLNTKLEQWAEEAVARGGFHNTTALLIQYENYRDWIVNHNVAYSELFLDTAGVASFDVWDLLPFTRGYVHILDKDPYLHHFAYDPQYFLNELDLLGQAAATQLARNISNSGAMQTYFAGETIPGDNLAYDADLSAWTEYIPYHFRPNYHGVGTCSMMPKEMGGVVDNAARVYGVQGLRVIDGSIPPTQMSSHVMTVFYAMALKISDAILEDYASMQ

## O=C(O)c1cc(SSc2ccc([N+](=O)[O-])c(C(=O)O)c2)ccc1[N+](=O)[O-] [DTNB, 5,5′-dithiobis-2-nitrobenzoic acid, reference compound]
Glucose oxidase (GOx) [1]
  effect on GOx-directed DCL: prevented the amplification of any other ligands except DTNB
Glucose oxidase (GOx) [2]; IC50 data, inhibitor 1.4 nM, glucose 10 mM
  GOx Activity: 0.0674 min⁻¹
Glucose oxidase (GOx) [2]; IC50 data, inhibitor 3.5 nM, glucose 10 mM
  GOx Activity: 0.0701 min⁻¹
Glucose oxidase (GOx) [2]; IC50 data, inhibitor 7.0 nM, glucose 10 mM
  GOx Activity: 0.063 min⁻¹
Glucose oxidase (GOx) [2]; IC50 data, inhibitor 14.0 nM, glucose 10 mM
  GOx Activity: 0.0639 min⁻¹
Glucose oxidase (GOx) [2]; IC50 data, inhibitor 70.0 nM, glucose 10 mM
  GOx Activity: 0.0603 min⁻¹
Glucose oxidase (GOx) [2]; IC50 data, inhibitor 140.0 nM, glucose 10 mM
  GOx Activity: 0.0454 min⁻¹
Glucose oxidase (GOx) [2]; IC50 data, inhibitor 700.0 nM, glucose 10 mM
  GOx Activity: 0.0399 min⁻¹
Glucose oxidase (GOx) [2]; IC50 data, inhibitor 1400.0 nM, glucose 10 mM
  GOx Activity: 0.0322 min⁻¹
Glucose oxidase (GOx) [2]; IC50 data, inhibitor 1428571.0 nM, glucose 10 mM
  GOx Activity: 0.0388 min⁻¹
Glucose oxidase (GOx) [2]; Ki data, inhibitor 3,5·10^-8 M, [Glucose] 0.0002 M
  GOx Activity: 0.0024 min⁻¹
Glucose oxidase (GOx) [2]; Ki data, inhibitor 3,5·10^-8 M, [Glucose] 0.0007 M
  GOx Activity: 0.0073 min⁻¹
Glucose oxidase (GOx) [2]; Ki data, inhibitor 3,5·10^-8 M, [Glucose] 0.0014 M
  GOx Activity: 0.013 min⁻¹
Glucose oxidase (GOx) [2]; Ki data, inhibitor 3,5·10^-8 M, [Glucose] 0.0028 M
  GOx Activity: 0.0254 min⁻¹
Glucose oxidase (GOx) [2]; Ki data, inhibitor 3,5·10^-8 M, [Glucose] 0.004 M
  GOx Activity: 0.0298 min⁻¹
Glucose oxidase (GOx) [2]; Ki data, inhibitor 7·10^-8 M, [Glucose] 0.0002 M
  GOx Activity: 0.0022 min⁻¹
Glucose oxidase (GOx) [2]; Ki data, inhibitor 7·10^-8 M, [Glucose] 0.0007 M
  GOx Activity: 0.0054 min⁻¹
Glucose oxidase (GOx) [2]; Ki data, inhibitor 7·10^-8 M, [Glucose] 0.0014 M
  GOx Activity: 0.0121 min⁻¹
Glucose oxidase (GOx) [2]; Ki data, inhibitor 7·10^-8 M, [Glucose] 0.0028 M
  GOx Activity: 0.0197 min⁻¹
Glucose oxidase (GOx) [2]; Ki data, inhibitor 7·10^-8 M, [Glucose] 0.004 M
  GOx Activity: 0.0279 min⁻¹
Glucose oxidase (GOx) [2]; Ki data, inhibitor 14·10^-8 M, [Glucose] 0.0002 M
  GOx Activity: 0.0008 min⁻¹
Glucose oxidase (GOx) [2]; Ki data, inhibitor 14·10^-8 M, [Glucose] 0.0007 M
  GOx Activity: 0.004 min⁻¹
Glucose oxidase (GOx) [2]; Ki data, inhibitor 14·10^-8 M, [Glucose] 0.0014 M
  GOx Activity: 0.0074 min⁻¹
Glucose oxidase (GOx) [2]; Ki data, inhibitor 14·10^-8 M, [Glucose] 0.0028 M
  GOx Activity: 0.015 min⁻¹
Glucose oxidase (GOx) [2]; Ki data, inhibitor 14·10^-8 M, [Glucose] 0.004 M
  GOx Activity: 0.0236 min⁻¹
Glucose oxidase (GOx) [2]; inhibitor 0,07 µM, 1/[glucose] 250 M-1
  1/Vo: 32.9749 min
Glucose oxidase (GOx) [2]; inhibitor 0,07 µM, 1/[glucose] 357 M-1
  1/Vo: 56.0355 min
Glucose oxidase (GOx) [2]; inhibitor 0,07 µM, 1/[glucose] 714 M-1
  1/Vo: 65.6495 min
Glucose oxidase (GOx) [2]; inhibitor 0,07 µM, 1/[glucose] 1430 M-1
  1/Vo: 135.55 min
Glucose oxidase (GOx) [2]; inhibitor 0,07 µM, 1/[glucose] 5000 M-1
  1/Vo: 532.407 min
Glucose oxidase (GOx) [2]; inhibitor 0,14 µM, 1/[glucose] 250 M-1
  1/Vo: 37.1744 min
Glucose oxidase (GOx) [2]; inhibitor 0,14 µM, 1/[glucose] 357 M-1
  1/Vo: 57.2815 min
Glucose oxidase (GOx) [2]; inhibitor 0,14 µM, 1/[glucose] 714 M-1
  1/Vo: 76.102 min
Glucose oxidase (GOx) [2]; inhibitor 0,14 µM, 1/[glucose] 1430 M-1
  1/Vo: 148 min
Glucose oxidase (GOx) [2]; inhibitor 0,14 µM, 1/[glucose] 5000 M-1
  1/Vo: 505.051 min
Glucose oxidase (GOx) [2]; Lineweaver–Burk plots
  Inhibitor Type: non-competitive
Glucose oxidase (GOx) [2]; non-competitive inhibition model, 37 °C, sodium acetate buffer pH 5.1
  Ki: 0.2 ± 0.02 µM
Glucose oxidase (GOx) [3]; [4]
  Emission Average: 1800741
  Normalized Fluorescence: 0.1466
Glucose oxidase (GOx) [3]; [5]
  Emission Average: 955958
  Normalized Fluorescence: 0.5470
Glucose oxidase (GOx) [3]; [6]
  Emission Average: 361199
  Normalized Fluorescence: 0.8288
Glucose oxidase (GOx) [3]; [7]
  Emission Average: 25171.8
  Normalized Fluorescence: 0.9881
Glucose oxidase (GOx) [3]; [8]
  Emission Average: 521.51
  Normalized Fluorescence: 0.9998
Glucose oxidase (GOx) [3]; apparent dissociation constant, read-out: Kd'
  Kd: 64 ± 2 µM

## OC[C@H]1O[C@@H](O)[C@H](O)[C@@H](O)[C@@H]1O [β-D-glucose]
Apo and holo GOx
  Kd: ~10000 µM
Glucose oxidase (GOx) [3]; read-out: apparent dissociation constant
  Kd: 1100 ± 20 µM
Glucose oxidase (GOx) [3]; [9]
  Emmsion average: 4205310
  Normalized Fluorescence: 0.03401
Glucose oxidase (GOx) [3]; [10]
  Emmsion average: 4080311
  Normalized Fluorescence: 0.00328
Glucose oxidase (GOx) [3]; [11]
  Emmsion average: 4060405
  Normalized Fluorescence: -0.00162
Glucose oxidase (GOx) [3]; [12]
  Emmsion average: 4998302
  Normalized Fluorescence: 0.229
Glucose oxidase (GOx) [3]; [13]
  Emmsion average: 5886318
  Normalized Fluorescence: 0.4473
Glucose oxidase (GOx) [3]; [14]
  Emmsion average: 6538644
  Normalized Fluorescence: 0.6077
Glucose oxidase (GOx) [3]; [15]
  Emmsion average: 6499875
  Normalized Fluorescence: 0.5982
Glucose oxidase (GOx) [3]; [16]
  Emmsion average: 5944287
  Normalized Fluorescence: 0.4616
Glucose oxidase (GOx) [3]; [17]
  Emmsion average: 7469372
  Normalized Fluorescence: 0.8366
Glucose oxidase (GOx) [3]; [18]
  Emmsion average: 7323012
  Normalized Fluorescence: 0.8006
